The values that follow are results of earlier work, collected in patent publication US9056184B2, “Methods for renal denervation” (priority 2010, dated 2015).

Data set [1] addresses tetrodotoxin-resistant voltage-gated sodium channel (TTX-r Na+ channel).
For data set [2], the target named is tetrodotoxin-sensitive voltage-gated sodium channel (TTX-s Na+ channel). The conditions noted are these: read-out: binding affinity.
For data set [3] the following is noted: after initiation of therapy.
For the next data set, the system named is CYP3A4. The note with it: in vivo.
For data set [4] the following is noted: in vivo.

In the case of `NC1=N[C@H](O)[C@H]2[C@H]3O[C@]4(O)O[C@@H]([C@@H](O)[C@@]2(N1)[C@@H]4O)[C@]3(O)CO` [Tetrodotoxin], the binding affinity entry in data set [1] was “low micromolar”. Further, the Kd in data set [2] was 5 to 15 nM.

Take `NC(=O)N1c2ccccc2C=Cc2ccccc21` [carbamazepine, Carbamazepine]: the “time to stable carbamazepine concentrations” value in data set [3] is given as 2-3 weeks. Also, the “time for auto-induction to reach a plateau” value in the data set with CYP3A4 is 5 to 7 days.

On to `[Li]` [lithium], for which the toxic amounts in data set [4] is above 1.5 mmol/L.
